Test results published in ChEMBL document CHEMBL1150491, “Chemistry and pharmacokinetics of diarylthiophenes and terphenyls as selective COX-2 inhibitors” (Bioorg Med Chem Lett, 1996).
pIC50: −log10 of the molar value.

Legend:
[1] = molecular target: T1, Prostaglandin G/H synthase 2 (Homo sapiens, UniProt P35354); assay: Compound was evaluated for inhibitory activity against human Prostaglandin G/H synthase 2
T1 sequence (P35354 whole entry): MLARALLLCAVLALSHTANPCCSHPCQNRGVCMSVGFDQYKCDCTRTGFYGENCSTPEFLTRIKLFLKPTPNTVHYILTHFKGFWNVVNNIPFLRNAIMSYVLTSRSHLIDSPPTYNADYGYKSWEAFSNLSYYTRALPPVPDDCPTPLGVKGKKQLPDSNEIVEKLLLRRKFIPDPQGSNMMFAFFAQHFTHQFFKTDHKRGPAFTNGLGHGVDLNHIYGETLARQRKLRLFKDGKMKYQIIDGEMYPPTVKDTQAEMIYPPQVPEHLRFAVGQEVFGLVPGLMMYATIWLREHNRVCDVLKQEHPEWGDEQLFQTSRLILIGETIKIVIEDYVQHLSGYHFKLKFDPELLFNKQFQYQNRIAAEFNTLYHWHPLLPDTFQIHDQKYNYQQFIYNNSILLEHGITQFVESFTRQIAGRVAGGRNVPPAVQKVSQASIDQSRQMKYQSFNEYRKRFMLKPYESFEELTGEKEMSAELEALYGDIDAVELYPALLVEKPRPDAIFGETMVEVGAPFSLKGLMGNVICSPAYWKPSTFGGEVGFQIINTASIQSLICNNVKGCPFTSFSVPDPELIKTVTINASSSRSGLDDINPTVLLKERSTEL

[2] = molecular target: T2, Prostaglandin G/H synthase 1 (Ovis aries, UniProt P05979); assay: Compound was evaluated for inhibitory activity against ovine Prostaglandin G/H synthase 1
T2 sequence (P05979 whole entry): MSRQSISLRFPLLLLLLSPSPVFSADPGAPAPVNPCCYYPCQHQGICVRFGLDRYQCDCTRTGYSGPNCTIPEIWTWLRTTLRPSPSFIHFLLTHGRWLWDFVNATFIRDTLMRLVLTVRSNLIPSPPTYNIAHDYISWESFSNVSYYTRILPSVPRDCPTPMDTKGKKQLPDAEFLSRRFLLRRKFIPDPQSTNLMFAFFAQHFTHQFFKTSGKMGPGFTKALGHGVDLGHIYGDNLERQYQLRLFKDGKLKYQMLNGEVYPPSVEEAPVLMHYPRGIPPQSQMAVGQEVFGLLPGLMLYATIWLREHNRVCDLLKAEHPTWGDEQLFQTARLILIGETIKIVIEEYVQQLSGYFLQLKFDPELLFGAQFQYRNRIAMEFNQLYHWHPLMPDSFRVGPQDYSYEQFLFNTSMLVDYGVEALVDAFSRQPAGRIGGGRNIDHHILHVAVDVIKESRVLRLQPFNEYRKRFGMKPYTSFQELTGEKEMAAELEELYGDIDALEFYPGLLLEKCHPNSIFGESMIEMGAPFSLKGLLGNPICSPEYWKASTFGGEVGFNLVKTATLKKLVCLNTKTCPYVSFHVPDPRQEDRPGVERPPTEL

Canis familiaris [3] = assay: Maximum time was evaluated against Beagle dog at a dose of 15 mg/kg after po administration; format: ADME, organism-based, Canis lupus familiaris; parameters: dose 15 mg/kg, route oral; details: in vivo
[4] = Volume of distribution was evaluated in Sprague-Dawley rats at a dose of 15 mg/kg after iv administration; format: ADME, organism-based; parameters: dose 15 mg/kg, route intravenous; details: rat, in vivo, read-out: Vss
[5] = Maximum concentration in plasma was evaluated in Sprague-Dawley rats at a dose of 15 mg/kg after po administration; format: ADME, organism-based; parameters: dose 15 mg/kg, route oral; details: rat
[6] = Half life period was evaluated against Cynomolgus monkey at a dose of 15 mg/kg after po administration; format: ADME, organism-based; parameters: dose 15 mg/kg, route oral; details: cercopithecidae, in vivo
Canis familiaris [7] = assay: Area under curve was evaluated against Beagle dog at a dose of 15 mg/kg after po administration; format: ADME, organism-based, Canis lupus familiaris; parameters: dose 15 mg/kg, route oral; details: in vivo
[8] = Area under curve was evaluated against man at a dose of 10 mg/kg after po administration; format: ADME, organism-based; parameters: dose 10 mg/kg, route oral; details: human, in vivo
Canis familiaris [9] = assay: Half life period was evaluated against Beagle dog at a dose of 15 mg/kg after po administration; format: ADME, organism-based, Canis lupus familiaris; parameters: dose 15 mg/kg, route oral; details: in vivo
[10] = Half life period was evaluated in Sprague-Dawley rats at a dose of 15 mg/kg after po administration; format: ADME, organism-based; parameters: dose 15 mg/kg, route oral; details: rat, in vivo
[11] = Bioavailability was evaluated against Beagle dog at a dose of 15 mg/kg after po administration; format: ADME, organism-based, Canis lupus familiaris; details: in vivo
[12] = Half life period was evaluated against Sprague-Dawley rats at a dose of 15 mg/kg after iv administration; format: ADME, organism-based; parameters: dose 15 mg/kg, route intravenous; details: rat, in vivo
Canis familiaris [13] = assay: Maximum concentration was evaluated against Beagle dog at a dose of 15 mg/kg after po administration; format: ADME, organism-based, Canis lupus familiaris; parameters: dose 15 mg/kg, route oral; details: in vivo
[14] = Area under curve was evaluated against Cynomolgus monkey at a dose of 15 mg/kg after po administration; format: ADME, organism-based; parameters: dose 15 mg/kg, route oral; details: cercopithecidae, in vivo
[15] = Maximum time was evaluated against Cynomolgus monkey at a dose of 15 mg/kg after po administration; format: ADME, organism-based; parameters: dose 15 mg/kg, route oral; details: cercopithecidae, in vivo
[16] = Oral bioavailability in rat (Sprague-Dawley) (dose 15 mg/kg); format: ADME, organism-based; details: in vivo
[17] = Maximum time was evaluated against man at a dose of 10 mg/kg after po administration; format: ADME, organism-based; parameters: dose 10 mg/kg, route oral; details: human, in vivo
[18] = Maximum concentration was evaluated against Cynomolgus monkey at a dose of 15 mg/kg after po administration; format: ADME, organism-based; parameters: dose 15 mg/kg, route oral; details: cercopithecidae, in vivo
[19] = Plasma clearance was evaluated in Sprague-Dawley rats at a dose of 15 mg/kg after iv administration; format: ADME, organism-based; parameters: dose 15 mg/kg, route intravenous; details: rat
[20] = Maximum concentration was evaluated against man at a dose of 10 mg/kg after po administration; format: ADME, organism-based; parameters: dose 10 mg/kg, route oral; details: human, in vivo
[21] = Time taken to reach maximum concentration in plasma was evaluated in Sprague-Dawley rats at a dose of 15 mg/kg after po administration; format: ADME, organism-based; parameters: dose 15 mg/kg, route oral; details: rat
[22] = Half life period was evaluated against man at a dose of 10 mg/kg after po administration; format: ADME, organism-based; parameters: dose 10 mg/kg, route oral; details: human, in vivo
[23] = Bioavailability was evaluated against Cynomolgus monkey at a dose of 15 mg/kg after po administration; format: ADME, organism-based, Macaca fascicularis; details: in vivo

CS(=O)(=O)c1ccc(-c2cscc2-c2ccc(S(C)(=O)=O)cc2)cc1
pIC50 [1]: < 3.52
pIC50 [2]: < 3.52

CS(=O)(=O)c1ccc(-c2cc([N+](=O)[O-])sc2-c2ccc(F)cc2)cc1
pIC50 [1]: 4.85
pIC50 [2]: < 3.00

COc1ccc(-c2cscc2-c2ccc(S(C)(=O)=O)cc2)cc1
pIC50 [1]: 5.30
pIC50 [2]: < 3.00

CS(=O)(=O)c1ccc(-c2cc(Br)sc2-c2ccc(F)cc2)cc1 [DUP-697]
T max (Canis familiaris [3]): 1 h
Vd [4]: 6.3 L/kg
Cmax [5]: 2400 ng/mL
half-life [6]: 31.8 h
AUC (Canis familiaris [7]): 1.5 µg·h/mL
AUC [8]: 3240 µg·h/mL
T1/2 (Canis familiaris [9]): 6 h
half-life [10]: 16.6 h
bioavailability [11]: 4.4%
half-life [12]: 22 h
Cmax (Canis familiaris [13]): 411 ng/mL
AUC [14]: 56 µg·h/mL
Tmax [15]: 24 h
bioavailability [16]: 75%
Tmax [17]: 3 h
Cmax [18]: 698 ng/mL
clearance [19]: 3.63 mL/min/kg
Cmax [20]: 60.5 ng/mL
Tmax [21]: 8 h
half-life [22]: 292 h
bioavailability [23]: 30.4%

CS(=O)(=O)c1ccc(-c2cscc2-c2ccccc2)cc1
pIC50 [1]: 5.40
pIC50 [2]: < 3.00

CS(=O)(=O)c1ccc(-c2cscc2-c2ccc(F)cc2)cc1
pIC50 [1]: 5.10
pIC50 [2]: 3.17

COc1ccc(-c2sccc2-c2ccc(S(C)(=O)=O)cc2)cc1
pIC50 [1]: 5.30
pIC50 [2]: 4.32

CSc1ccc(-c2cscc2-c2ccc(S(C)(=O)=O)cc2)cc1
pIC50 [1]: 5.22
pIC50 [2]: 4.03

CS(=O)(=O)c1ccc(-c2ccsc2-c2ccc(F)cc2)cc1
Vd [4]: 19 L/kg
Cmax [5]: 8 ng/mL
half-life [10]: 12.1 h
half-life [12]: 14.3 h
pIC50 [1]: 5.10
bioavailability [16]: 3.4%
pIC50 [2]: 3.31
clearance [19]: 158 mL/min/kg
Tmax [21]: 4 h

c1ccc(-c2ccsc2-c2ccccc2)cc1
Vd [4]: 19.6 L/kg
Cmax [5]: 100 ng/mL
half-life [12]: 4.94 h
pIC50 [1]: < 3.52
bioavailability [16]: 20%
pIC50 [2]: 4.55
clearance [19]: 51.3 mL/min/kg
Tmax [21]: 4.2 h

CCOC(=O)CCc1cc(-c2ccc(S(C)(=O)=O)cc2)c(-c2ccc(F)cc2)s1
pIC50 [1]: 3.89
pIC50 [2]: 3.70

CS(=O)(=O)c1ccc(-c2cc(N)sc2-c2ccc(F)cc2)cc1
pIC50 [1]: 5.52
pIC50 [2]: 5.22

Cc1cc(-c2ccc(S(C)(=O)=O)cc2)c(-c2ccc(F)cc2)s1
Vd [4]: 16.8 L/kg
Cmax [5]: 20 ng/mL
half-life [12]: 19.4 h
pIC50 [1]: 5.00
bioavailability [16]: 0.9%
pIC50 [2]: 4.10
clearance [19]: 28.2 mL/min/kg
Tmax [21]: 0.7 h

CS(=O)(=O)c1ccc(-c2cc(CCC(=O)O)sc2-c2ccc(F)cc2)cc1
pIC50 [1]: < 3.52
pIC50 [2]: 4.92

CS(=O)(=O)c1ccc(-c2ccsc2-c2ccccc2)cc1
pIC50 [1]: 5.40
pIC50 [2]: < 3.00

CS(=O)(=O)c1ccc(-c2ccsc2-c2ccc(O)cc2)cc1
pIC50 [1]: 4.07
pIC50 [2]: 3.53

CS(=O)(=O)c1ccc(-c2ccccc2-c2ccccc2)cc1
Vd [4]: 3.08 L/kg
Cmax [5]: 1430 ng/mL
half-life [12]: 1.7 h
pIC50 [1]: 4.96
bioavailability [16]: 60%
pIC50 [2]: < 3.00
clearance [19]: 35.8 mL/min/kg
Tmax [21]: 0.25 h

CCOC(=O)/C=C/c1cc(-c2ccc(S(C)(=O)=O)cc2)c(-c2ccc(F)cc2)s1
pIC50 [1]: < 3.52
pIC50 [2]: 4.00

CS(=O)(=O)c1ccc(-c2c(-c3ccccc3)sc3c2CCCC3)cc1
pIC50 [1]: 4.72
pIC50 [2]: < 3.00

CS(=O)(=O)c1ccc(-c2cc(CC#N)sc2-c2ccc(F)cc2)cc1
pIC50 [1]: 4.31
pIC50 [2]: < 3.52

CS(=O)(=O)c1ccc(-c2cc(Sc3ccccc3)sc2-c2ccc(F)cc2)cc1
pIC50 [1]: 4.18
pIC50 [2]: < 3.52

Cc1ccc(-c2sccc2-c2ccc(S(C)(=O)=O)cc2)cc1
pIC50 [1]: 4.89
pIC50 [2]: < 3.00

Cc1ccc(-c2cscc2-c2ccc(S(C)(=O)=O)cc2)cc1
pIC50 [1]: 5.40
pIC50 [2]: 3.36

CSc1ccc(-c2cscc2-c2ccc(SC)cc2)cc1
pIC50 [1]: 4.00
pIC50 [2]: 4.82

CS(=O)(=O)c1ccc(-c2cc(S(C)(=O)=O)sc2-c2ccc(F)cc2)cc1
pIC50 [1]: 3.70
pIC50 [2]: < 3.52
